Tested on: platelet aggregation
Assay: blood platelet aggregation inhibition, collagen as inducer
Type: cell-based
Conditions: 10^-4 mole, rabbit PRP
Source text: Blood platelet aggregation inhibiting effect
Male rabbits (Japan original white strain 3.3 to 3.6 kg) were anesthetized with Thiopental sodium and blood was sampled from the carotid artery.
With CCCCc1ccc(C(=O)c2ccc(OC)cc2)cc1 [compound 18] the “Blood platelet agg. inh. (percentage inhibition of platelet aggregation)” value was 9.3%. With CCCCCc1ccc(C(=O)c2ccccc2)cc1 [compound 23] the “Blood platelet agg. inh. (percentage inhibition of platelet aggregation)” value was 13.8%. In the case of CCCCCCc1ccc(C(=O)c2ccccc2)cc1 [compound 24], the “Blood platelet agg. inh. (percentage inhibition of platelet aggregation)” value is reported as 10.5%. With CCCCCCc1ccc(C(=O)c2ccc(C)cc2)cc1 [compound 36] the “Blood platelet agg. inh. (percentage inhibition of platelet aggregation)” value was 15.1%. In the case of CCCCc1ccc(C(=O)Cc2ccccc2)cc1 [compound 39], the “Blood platelet agg. inh. (percentage inhibition of platelet aggregation)” value is reported as 2.6%. In the case of Cc1ccc(C(=O)Cc2ccccc2)cc1 [compound 48], the “Blood platelet agg. inh. (percentage inhibition of platelet aggregation)” value is reported as 20.5%. With CCCCCCCCCCc1ccc(C(=O)Cc2ccccc2)cc1 [compound 50] the “Blood platelet agg. inh. (percentage inhibition of platelet aggregation)” value was 8.7%. For CCCCCCCCCCCc1ccc(C(=O)Cc2ccccc2)cc1 [compound 51], the “Blood platelet agg. inh. (percentage inhibition of platelet aggregation)” value was 9.5%. For CCCCCCCCCCCCc1ccc(C(=O)Cc2ccccc2)cc1 [compound 52], the “Blood platelet agg. inh. (percentage inhibition of platelet aggregation)” value was 6.8%. For CCc1ccc(C(=O)C(=O)c2ccccc2)cc1 [compound 55], the “Blood platelet agg. inh. (percentage inhibition of platelet aggregation)” value was 23.3%. With CCCOc1ccc(C(=O)Cc2ccccc2)cc1 [compound 58] the “Blood platelet agg. inh. (percentage inhibition of platelet aggregation)” value was 20.1%. With CCCCCOc1ccc(C(=O)Cc2ccccc2)cc1 [compound 59] the “Blood platelet agg. inh. (percentage inhibition of platelet aggregation)” value was 25.6%. With COc1ccc(C(=O)Cc2ccc(Cl)cc2)cc1 [compound 60] the “Blood platelet agg. inh. (percentage inhibition of platelet aggregation)” value was 4.0%. In the case of Cc1ccc(C(=O)c2ccccc2)cc1 [compound 65], the “Blood platelet agg. inh. (percentage inhibition of platelet aggregation)” value is reported as 21.0%. For CCCCCCCCCCc1ccc(C(=O)c2ccccc2)cc1 [compound 68], the “Blood platelet agg. inh. (percentage inhibition of platelet aggregation)” value was 16.5%. With CCCCCCCCCCCCc1ccc(C(=O)c2ccccc2)cc1 [compound 69] the “Blood platelet agg. inh. (percentage inhibition of platelet aggregation)” value was 13.5%. In the case of CCCCCCCCCCCc1ccc(C(=O)c2ccccc2)cc1 [compound 71], the “Blood platelet agg. inh. (percentage inhibition of platelet aggregation)” value is reported as 19.5%. In the case of CCCCc1ccc(CCCC)c(C(=O)c2ccccc2)c1 [compound 77], the “Blood platelet agg. inh. (percentage inhibition of platelet aggregation)” value is reported as 25.1%. With Cc1cc(C)c(C)c(C(=O)c2ccccc2)c1C [compound 78] the “Blood platelet agg. inh. (percentage inhibition of platelet aggregation)” value was 19.9%. In the case of CCc1ccc(CC)c(C(=O)c2ccccc2)c1 [compound 80], the “Blood platelet agg. inh. (percentage inhibition of platelet aggregation)” value is reported as 30.3%. For CCOc1ccc(C(=O)c2ccccc2)cc1 [compound 81], the “Blood platelet agg. inh. (percentage inhibition of platelet aggregation)” value was 18.3%. With C=Cc1ccc(C(=O)c2ccccc2)cc1 [compound 82] the “Blood platelet agg. inh. (percentage inhibition of platelet aggregation)” value was 20.5%. With Cc1ccc(C(=O)c2ccc(C)cc2)cc1 [compound 83] the “Blood platelet agg. inh. (percentage inhibition of platelet aggregation)” value was 27.6%. In the case of Cc1ccc(C(=O)c2c(C)cc(C)cc2C)cc1 [compound 86], the “Blood platelet agg. inh. (percentage inhibition of platelet aggregation)” value is reported as 28.3%. With CCCc1ccc(C(=O)c2cccc(C)c2)cc1 [compound 87] the “Blood platelet agg. inh. (percentage inhibition of platelet aggregation)” value was 30.1%. In the case of CCCCc1ccc(C(=O)c2cccc(C)c2)cc1 [compound 88], the “Blood platelet agg. inh. (percentage inhibition of platelet aggregation)” value is reported as 24.5%. For CCCc1ccc(C(=O)c2ccc(OC)cc2)cc1 [compound 93], the “Blood platelet agg. inh. (percentage inhibition of platelet aggregation)” value was 24.4%. For CCCCOc1ccc(C(=O)c2ccc(CCCC)cc2)cc1 [compound 95], the “Blood platelet agg. inh. (percentage inhibition of platelet aggregation)” value was 30.0%. For CCCc1ccc(C(=O)c2ccc(C)cc2C)cc1 [compound 96], the “Blood platelet agg. inh. (percentage inhibition of platelet aggregation)” value was 28.5%. With CCCc1ccc(C(=O)c2c(C)cc(C)cc2C)cc1 [compound 97] the “Blood platelet agg. inh. (percentage inhibition of platelet aggregation)” value was 26.8%. With CCCCCCCc1ccc(C(=O)c2ccc(CCCC)cc2)cc1 [compound 100] the “Blood platelet agg. inh. (percentage inhibition of platelet aggregation)” value was 22.4%. In the case of CCCCCCCCc1ccc(C(=O)c2ccc(CCCC)cc2)cc1 [compound 101], the “Blood platelet agg. inh. (percentage inhibition of platelet aggregation)” value is reported as 27.9%. In the case of CCCCCCCCCc1ccc(C(=O)c2ccc(CCCC)cc2)cc1 [compound 102], the “Blood platelet agg. inh. (percentage inhibition of platelet aggregation)” value is reported as 30.4%. For Cc1cc(C)c(C(=O)c2ccc(O)cc2)c(C)c1 [compound 108], the “Blood platelet agg. inh. (percentage inhibition of platelet aggregation)” value was 28.4%. With O=C(c1ccccc1)c1ccc(O)cc1 [compound 109] the “Blood platelet agg. inh. (percentage inhibition of platelet aggregation)” value was 13.7%. For CCCc1ccc(C(=O)c2ccc(CCC)cc2)cc1 [compound 110], the “Blood platelet agg. inh. (percentage inhibition of platelet aggregation)” value was 20.5%. For CCCCCc1ccc(C(=O)c2ccc(CCCCC)cc2)cc1 [compound 111], the “Blood platelet agg. inh. (percentage inhibition of platelet aggregation)” value was 10.3%. In the case of CCCc1ccc(C(=O)c2ccc(CC)cc2)cc1 [compound 112], the “Blood platelet agg. inh. (percentage inhibition of platelet aggregation)” value is reported as 11.8%. With O=C(c1ccc(F)cc1)c1ccccc1Cl [compound 115] the “Blood platelet agg. inh. (percentage inhibition of platelet aggregation)” value was 25.4%.

Tested on: not listed separately
Assay: in vivo
Conditions: mouse, po
Experimental: Each sample was dissolved in olive oil or dispersed in 1% Tween 20 aqueous solution.
With CCCCc1ccc(C(=O)c2ccc(OC)cc2)cc1 [compound 18] the LD50 at 72 h was 2000 mg/kg. CCCCCc1ccc(C(=O)c2ccccc2)cc1 [compound 23] gave an LD50 at 72 h of 5000 mg/kg. CCCCCCc1ccc(C(=O)c2ccccc2)cc1 [compound 24] gave an LD50 at 72 h of 6000 mg/kg. Work on CCCCCCc1ccc(C(=O)c2ccc(C)cc2)cc1 [compound 36] yielded an LD50 at 72 h of over 10000 mg/kg. Compound CCCCc1ccc(C(=O)Cc2ccccc2)cc1 [compound 39] has an LD50 at 72 h of over 10000 mg/kg. In the case of CCCCCCCCCCc1ccc(C(=O)Cc2ccccc2)cc1 [compound 50], the LD50 at 72 h is reported as over 10000 mg/kg. Compound COc1ccc(C(=O)c2ccccc2F)cc1 [compound 116] has an LD50 at 72 h of 4000 mg/kg. In the case of CC(C)c1ccc(C(=O)c2ccccc2F)cc1 [compound 117], the LD50 at 72 h is reported as 1500 mg/kg. In the case of CC(C)Cc1ccc(C(=O)c2ccccc2F)cc1 [compound 118], the LD50 at 72 h is reported as 2000 mg/kg. CCC(C)c1ccc(C(=O)c2ccccc2F)cc1 (stereo not shown) [compound 119] showed an LD50 at 72 h of 2000 mg/kg. With CC(C)(C)c1ccc(C(=O)c2ccccc2F)cc1 [compound 120] the LD50 at 72 h was 750 mg/kg. Compound CCC(C)(C)c1ccc(C(=O)c2ccccc2F)cc1 [compound 122] has an LD50 at 72 h of 2000 mg/kg. With CCCCc1ccc(C(=O)c2cccc(F)c2)cc1 [compound 123] the LD50 at 72 h was 1500 mg/kg. In the case of CCCCCc1ccc(C(=O)c2cccc(F)c2)cc1 [compound 124], the LD50 at 72 h is reported as 3000 mg/kg. With Cc1cc(C)c(C(=O)c2cccc(F)c2)c(C)c1 [compound 125] the LD50 at 72 h was 1000 mg/kg. With Cc1ccc(C(=O)c2cccc(F)c2)c(C)c1 [compound 126] the LD50 at 72 h was 1000 mg/kg. CCCCc1ccc(C(=O)c2ccc(F)cc2)cc1 [compound 127] gave an LD50 at 72 h of 5000 mg/kg. For CCCCCc1ccc(C(=O)c2ccc(F)cc2)cc1 [compound 128], the LD50 at 72 h was 4000 mg/kg. CCCCCCCCc1ccc(C(=O)c2ccc(F)cc2)cc1 [compound 129] showed an LD50 at 72 h of over 10000 mg/kg. Cc1ccc(C(=O)c2ccc(F)cc2)c(C)c1 [compound 130] showed an LD50 at 72 h of 2000 mg/kg. Work on Cc1cc(C)c(C(=O)c2ccc(F)cc2)c(C)c1 [compound 131] yielded an LD50 at 72 h of 2000 mg/kg. Work on CCCc1ccc(C(=O)c2ccccc2Cl)cc1 [compound 132] yielded an LD50 at 72 h of 2000 mg/kg. For CCCCCc1ccc(C(=O)c2ccccc2Cl)cc1 [compound 133], the LD50 at 72 h was 2000 mg/kg. With CCCCCCCCc1ccc(C(=O)c2ccccc2Cl)cc1 [compound 134] the LD50 at 72 h was 3000 mg/kg. With Cc1ccc(C(=O)c2ccccc2Cl)c(C)c1 [compound 135] the LD50 at 72 h was 1000 mg/kg. Work on COc1ccc(C(=O)c2ccc(Cl)cc2)cc1 [compound 136] yielded an LD50 at 72 h of 2000 mg/kg. Compound CCCCOc1ccc(C(=O)c2ccc(Cl)cc2)cc1 [compound 137] has an LD50 at 72 h of 2000 mg/kg. With CCCCCCOc1ccc(C(=O)c2ccc(Cl)cc2)cc1 [compound 138] the LD50 at 72 h was 2500 mg/kg. Work on CCCc1ccc(C(=O)c2cccc(Cl)c2)cc1 [compound 139] yielded an LD50 at 72 h of 1000 mg/kg. In the case of CCCCCc1ccc(C(=O)c2cccc(Cl)c2)cc1 [compound 140], the LD50 at 72 h is reported as 1000 mg/kg. For CCCCCCCCc1ccc(C(=O)c2cccc(Cl)c2)cc1 [compound 141], the LD50 at 72 h was 2000 mg/kg. For CCCc1ccc(C(=O)c2ccccc2Br)cc1 [compound 142], the LD50 at 72 h was 1500 mg/kg. Work on CCCCc1ccc(C(=O)c2ccccc2Br)cc1 [compound 143] yielded an LD50 at 72 h of 1500 mg/kg. CCCCCc1ccc(C(=O)c2ccccc2Br)cc1 [compound 144] showed an LD50 at 72 h of 1500 mg/kg. Compound CCCCCCCCc1ccc(C(=O)c2ccccc2Br)cc1 [compound 145] has an LD50 at 72 h of 2000 mg/kg. Work on Cc1ccc(C(=O)c2ccccc2Br)c(C)c1 [compound 146] yielded an LD50 at 72 h of 1000 mg/kg. In the case of Cc1cc(C)c(C(=O)c2ccccc2Br)c(C)c1 [compound 147], the LD50 at 72 h is reported as 1000 mg/kg. Work on CCCCCCCCc1ccc(C(=O)c2cccc(Br)c2)cc1 [compound 148] yielded an LD50 at 72 h of 2000 mg/kg. Work on Cc1ccc(C(=O)c2cccc(Br)c2)c(C)c1 [compound 149] yielded an LD50 at 72 h of 500 mg/kg. CCCc1ccc(C(=O)c2ccc(Br)cc2)cc1 [compound 150] gave an LD50 at 72 h of 2000 mg/kg. With CCCCCCCCc1ccc(C(=O)c2ccc(Br)cc2)cc1 [compound 151] the LD50 at 72 h was 2500 mg/kg. In the case of Cc1ccc(C(=O)c2ccc(Br)cc2)c(C)c1 [compound 152], the LD50 at 72 h is reported as 1500 mg/kg. Work on Cc1cc(C)c(C(=O)c2ccc(Br)cc2)c(C)c1 [compound 153] yielded an LD50 at 72 h of 1500 mg/kg. For CCCc1ccc(C(=O)c2ccccc2I)cc1 [compound 154], the LD50 at 72 h was over 10000 mg/kg. CCCCc1ccc(C(=O)c2ccccc2I)cc1 [compound 155] gave an LD50 at 72 h of over 10000 mg/kg. CCCCCc1ccc(C(=O)c2ccccc2I)cc1 [compound 156] gave an LD50 at 72 h of over 10000 mg/kg. Compound CCCCCCCCc1ccc(C(=O)c2ccccc2I)cc1 [compound 157] has an LD50 at 72 h of over 10000 mg/kg. Compound Cc1ccc(C(=O)c2ccccc2I)c(C)c1 [compound 158] has an LD50 at 72 h of 2000 mg/kg. With Cc1cc(C)c(C(=O)c2ccccc2I)c(C)c1 [compound 159] the LD50 at 72 h was 1000 mg/kg. Compound CCCCc1ccc(C(=O)c2cccc(I)c2)cc1 [compound 160] has an LD50 at 72 h of 2500 mg/kg. Work on Cc1ccc(C(=O)c2cccc(I)c2)c(C)c1 [compound 162] yielded an LD50 at 72 h of 1500 mg/kg. In the case of Cc1cc(C)c(C(=O)c2cccc(I)c2)c(C)c1 [compound 163], the LD50 at 72 h is reported as 1500 mg/kg. CCCCCCCCc1ccc(C(=O)c2ccc(I)cc2)cc1 [compound 164] gave an LD50 at 72 h of over 10000 mg/kg. In the case of Cc1ccc(C(=O)c2ccc(I)cc2)c(C)c1 [compound 165], the LD50 at 72 h is reported as 5000 mg/kg. Cc1cc(C)c(C(=O)c2ccc(I)cc2)c(C)c1 [compound 166] showed an LD50 at 72 h of 5000 mg/kg.

Tested on: painful stretchings induced by acetic acid
Assay: acetic acid induced stretching (analgesic effect)
Conditions: 100 mg/kg oral, 0.7% acetic acid i.p., mice
Experimental: Each sample was orally administrated in the dosage of 100 mg/kg before injection of acetic acid.
In the case of CCCCc1ccc(C(=O)c2ccc(OC)cc2)cc1 [compound 18], the “Analgesic (percentage diminution of times of painful stretchings)” value is reported as 20.1%. With CCCCCc1ccc(C(=O)c2ccccc2)cc1 [compound 23] the “Analgesic (percentage diminution of times of painful stretchings)” value was 10.1%. In the case of CCCCCCc1ccc(C(=O)c2ccccc2)cc1 [compound 24], the “Analgesic (percentage diminution of times of painful stretchings)” value is reported as 47.7%.
